{"source": "paper PMC6934184", "about": "“Selective DNA-PKcs inhibition extends the therapeutic index of localized radiotherapy and chemotherapy” (The Journal of Clinical Investigation, 2019)", "molecular_target": "T1, CDC42 BPB (MRCKB) (Homo sapiens, UniProt Q9Y5S2)", "T1 construct": "purchased Thermo Fisher Scientific (Life Technologies) SelectScreen", "T1 sequence (Q9Y5S2 whole entry)": "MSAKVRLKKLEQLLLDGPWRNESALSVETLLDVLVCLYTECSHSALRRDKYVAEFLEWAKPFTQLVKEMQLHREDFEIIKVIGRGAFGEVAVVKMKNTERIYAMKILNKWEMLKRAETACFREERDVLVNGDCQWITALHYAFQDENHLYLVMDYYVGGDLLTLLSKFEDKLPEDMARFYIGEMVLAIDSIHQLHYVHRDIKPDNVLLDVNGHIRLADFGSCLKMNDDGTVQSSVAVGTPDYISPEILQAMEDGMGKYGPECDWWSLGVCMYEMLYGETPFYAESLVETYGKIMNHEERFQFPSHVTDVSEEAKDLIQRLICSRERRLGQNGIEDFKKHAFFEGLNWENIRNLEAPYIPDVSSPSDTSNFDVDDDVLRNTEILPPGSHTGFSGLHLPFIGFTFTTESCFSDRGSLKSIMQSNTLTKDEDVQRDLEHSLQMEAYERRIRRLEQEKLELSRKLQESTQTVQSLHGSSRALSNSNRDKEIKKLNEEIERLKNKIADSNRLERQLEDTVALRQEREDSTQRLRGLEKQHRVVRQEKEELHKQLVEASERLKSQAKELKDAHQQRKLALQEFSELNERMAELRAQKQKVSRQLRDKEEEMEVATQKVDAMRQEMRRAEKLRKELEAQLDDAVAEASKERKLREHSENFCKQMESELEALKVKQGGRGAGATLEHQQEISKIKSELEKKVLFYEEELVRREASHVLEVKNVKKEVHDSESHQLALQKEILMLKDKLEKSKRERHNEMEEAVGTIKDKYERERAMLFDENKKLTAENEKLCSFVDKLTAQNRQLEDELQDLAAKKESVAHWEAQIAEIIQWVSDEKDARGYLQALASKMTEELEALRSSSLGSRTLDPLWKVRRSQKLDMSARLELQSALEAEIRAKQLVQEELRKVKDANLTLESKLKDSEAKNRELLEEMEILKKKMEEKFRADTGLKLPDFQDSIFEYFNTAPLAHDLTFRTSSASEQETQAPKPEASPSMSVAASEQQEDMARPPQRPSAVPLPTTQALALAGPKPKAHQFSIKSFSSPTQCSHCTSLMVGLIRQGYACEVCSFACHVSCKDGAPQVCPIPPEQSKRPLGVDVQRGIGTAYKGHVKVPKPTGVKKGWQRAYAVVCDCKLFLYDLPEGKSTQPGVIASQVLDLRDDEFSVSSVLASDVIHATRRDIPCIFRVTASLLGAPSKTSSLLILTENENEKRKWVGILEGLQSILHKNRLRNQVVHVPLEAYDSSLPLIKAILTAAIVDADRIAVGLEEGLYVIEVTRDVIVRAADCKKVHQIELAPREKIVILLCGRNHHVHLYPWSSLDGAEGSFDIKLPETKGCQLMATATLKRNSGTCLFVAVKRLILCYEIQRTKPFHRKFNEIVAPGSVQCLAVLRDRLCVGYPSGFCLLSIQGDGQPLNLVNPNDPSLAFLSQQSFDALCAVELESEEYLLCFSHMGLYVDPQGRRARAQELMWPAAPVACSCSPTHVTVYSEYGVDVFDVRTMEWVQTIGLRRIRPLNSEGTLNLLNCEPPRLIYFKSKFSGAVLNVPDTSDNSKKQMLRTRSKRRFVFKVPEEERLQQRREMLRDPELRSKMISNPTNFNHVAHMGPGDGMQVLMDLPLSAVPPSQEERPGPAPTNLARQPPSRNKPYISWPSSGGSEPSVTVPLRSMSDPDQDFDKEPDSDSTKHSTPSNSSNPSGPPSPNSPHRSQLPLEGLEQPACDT", "experiment": "SelectScreen Z'LYTE", "type": "biochemical", "method_in_brief": "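Percent values come from Thermo SelectScreen profiling of NU5455, combining activity and binding assays. CSF1R was run in Z'LYTE format at Km app ATP, and CAMK1 in Adapta format with ATP listed at 10.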"}
{"compound": "CN(C(=O)CN1CCOCC1)c1ccc2sc3c(-c4cccc5c(=O)cc(N6CC7CCC(C6)O7)oc45)cccc3c2c1", "note": "[NU5455]", "values": [{"measurement": "inhibition at 1 µM", "value": -2.5, "unit": "%"}]}
